# “And” between values parts separate entries of the source, which are not always exact repeats. Equal entries are not always repeated. “Also recorded” adds a separate entry of the source. Where two headings read alike, the source gives them in different places. Residues, ends and D or L forms follow the SMILES beside them. *: point of attachment. Cbz = O=C(OCc1ccccc1)*; CH2F = FC*
# Key:
# [1] = tested on: mixed cortical cell cultures containing neurons and glia; experiment: Fe2+-induced free radical neurotoxicity in mixed cortical cell cultures (LDH release); type: cell-based, mouse; settings: for IC50: 50 μM FeCl2, neuronal death 24 hr later (LDH), read-out: IC50 (50% protection against Fe^2+-induced free radical neurotoxicity); for Fe^2+-induced free radical neurotoxicity, effect in words: 50 μM Fe^2+, 24 hr, 2-Hydroxy-TTBA or 2-Hydroxy-TPEA at doses as low as 0.3 μM, vitamin E at higher doses, Li^+ 10 mM (legend 5 mM)
# Protocol: (§1) Mouse cortical cell cultures (DIV 11-15) were exposed to 50 μM Fe^2+ or 10 mM BSO, alone or with inclusion of 5 mM Li^+. Neuronal death was analyzed 24 hr later by measuring levels of LDH released into the bathing medium, mean±SEM (n=9-12 culture wells per condition).
# Mouse cortical cell cultures (DIV 11-15) were exposed to 30 μM Fe^2+ or 10 mM BSO, alone or in the presence of 1 μM 2-hydroxy TTBA, 10-100 μM vitamin E, or 5 mM Li^+.
# (§2) For mixed neuron-glia culture, mouse cerebral cortices were removed from brains of the 11-15 day-old-fetal mice (E11-15), gently triturated and plated on 24 well plates (2×10^5 cells/plate) precoated with 100 μg/ml poly-D-lysine and 4 pg/ml laminin. Cultures were maintained at 37° C. in a humidified 5% CO2 atmosphere.
# After 7-8 days in vitro (DIV 7-8), 10 μM cytosine arabinofuranoside (Ara-C) was included to halt overgrowth of glia. The drug treatment was carried on DIV 11-15 cortical cell culture.
# Oxidative stress was induced by exposing mixed cortical cell cultures containing neurons and glia (DIV 11-15) to 50 μM FeCl2, a hydroxyl radical-producing transition metal via a Fenton reaction, or 10 mM DL-buthionine-[S,R]-sulfoximine (BSO), a glutathione depleting agent.
# [2] = tested on: cortical cell cultures containing neurons and glia; experiment: cyclosporine A or calyculin A-induced neuronal cell apoptosis in cortical cell cultures; type: cell-based, mouse; settings: 24 hr; for cyclosporine A-induced neuronal cell apoptosis, effect in words: 20 μM cyclosporine A, 100 μM Vitamin E, 1 μM 2-hydroxy-TTBA, 1 μM 2-hydroxy-TPEA
# Protocol: Mouse cortical cell cultures (DIV 10-12) were exposed to 20 μM cyclosporine A or 10 nM calculin A, alone or with inclusion of 0.3-30 mM Li. Neuronal death was analyzed 24-28 hr later by measuring levels of LDH released into the bathing medium, mean±SEM (n=9-12 culture wells per condition).
# Mouse cortical cell cultures (DIV 10-12) were exposed to 20 μM cyclosporine A, alone or with 100 μM Vitamin E, 1 μM 2-hydroxy-TTBA, or 1 μM 2-hydroxy-TPEA. Neuronal death was analyzed 24 hr later by measuring levels of LDH released into the bathing medium, mean±SEM (n=9-12 culture wells per condition).
# Cortical cell cultures containing neurons and glia at 10-12 days in vitro (DIV 10-12) were exposed to 20 μM cyclosporine A (CsA) or 10 nM caliculin A (cal A). Neurons underwent widespread apoptosis 24 hr later as previously reported (McDonald et al., 1996; Ko et al., 2000). […] This implies that Li^+ and the neuroprotective drugs (vitamin E, trolox, BAS, CBAS, FBAS, TBAS, PBAS, MBAS, NPAA, NPPAA, 2-Hydroxy-TTBA, and 2-Hydroxy-TPEA) selectively prevent neuronal cell apoptosis and free radical-mediated necrosis, respectively.
# [3] = tested on: beta-amyloid (Aβ42); experiment: suppression of beta-amyloid (Aβ42) production in CHO cells (ELISA); type: cell-based, Chinese hamster; settings: Cricetulus griseus; CHO cells stably transfected with human wild APP695 and PS1ΔExon9; culture medium, ELISA; read-out: Aβ42 lowering effect (IC50)
# Protocol: The suppressing effects of many drug candidates on production of beta-amyloid were evaluated in CHO cell line having the increased level of beta-amyloid. Results were shown as IC50 (uM) (Item C of Table 3 below).
# In the Table 3, A, B and C mean neuron protecting effect against Fe^+2, suppressing effect on production of NO and suppressing effect on production of beta-amyloid, respectively. The term “ND” means “Not determined.”
# Cells were treated with increasing concentrations of various chemicals in Chinese hamster ovary (CHO) cells stably transfected with human wild APP695 and the PS1ΔExon9, and analyzed Aβ42 levels in culture medium by colorimetric sandwich ELISA kit (BIOSOURCE, Camarillo, Calif.). In CHO cells, IC50 of Chemical—01-08 on Aβ42 lowering effect was 20-100 uM (Table 4).
# [4] = single-dose toxicity test; settings: mouse, in vivo
# Protocol: Single-dose toxicity test of compounds showing good results in the above three efficacy tests were evaluated.
# [5] = tested on: mixed cortical cell cultures containing neurons and glia; experiment: BSO-induced free radical neurotoxicity in mixed cortical cell cultures (LDH release); type: cell-based, mouse
# Protocol: Mouse cortical cell cultures (DIV 11-15) were exposed to 10 mM BSO, alone or with indicated doses of 2-Hydroxy-TTBA or 2-Hydroxy-TPEA. Neuronal death was analyzed 24 hr later by measuring levels of LDH released into the bathing medium, mean±SEM (n=9-12 culture wells per condition). *, Significant difference from BSO alone, p<0.05 using ANOVA and Student-Newman-Keuls test.
# as §1
# Mouse cortical cell cultures (DIV 11-15) were exposed to 30 μM Fe^2+ or 10 mM BSO, alone or in the presence of 1 μM 2-hydroxy TTBA, 10-100 μM vitamin E, or 5 mM Li^+. Neuronal death was analyzed 24 h later by measuring LDH efflux in the bathing media (mean±SEM, n=12). *, Significant difference from the relevant control (Fe^2+ or BSO alone), p<0.05 using ANOVA and Student-Newman-Keuls test.
# as §2, with “atmosphere. Plating media consist of Eagles minimal essential media (MEM, Earles salts, supplied glutamine-free) supplemented with 5% horse serum, 5% fetal bovine serum, 26.5 mM bicarbonate, 2 mM glutamine, and 21 mM glucose.” for “atmosphere.”
# After 7-8 days in vitro (DIV 7-8), 10 μM cytosine arabinofuranoside (Ara-C) was included to halt overgrowth of glia. The drug treatment was carried on DIV 11-15 cortical cell culture. Overall neuronal cell injury was assessed by measuring amount of lactate dehydrogenase (LDH) released into the bathing medium 24 hr after neurotoxic insults as previously described (Koh and Choi, J Neurosci Methods 20:83-90, 1987).
# Oxidative stress was induced by exposing mixed cortical cell cultures containing neurons and glia (DIV 11-15) to 50 μM FeCl2, a hydroxyl radical-producing transition metal via a Fenton reaction, or 10 mM DL-buthionine-[S,R]-sulfoximine (BSO), a glutathione depleting agent. Widespread neuronal death was observed 24 hours later. […] Administration of vitamin E prevented Fe^2+-induced free radical neurotoxicity at higher doses. This implies that 2-Hydroxy-TTBA or 2-Hydroxy-TPEA is a potent neuroprotectant against oxidative stress.
# [6] = tested on: neuron-rich cortical cell cultures; experiment: serum deprivation-induced neuronal cell apoptosis; type: cell-based, mouse; settings: 24 hr; 5 mM Li^+, 100 μM zVADfmk, 1 μM 2-hydroxy TTBA
# Protocol: (§3) (B) Neuron-rich cortical cell cultures (DIV 7) were deprived of serum, alone or with addition of 100 μM zVADfmk, 1 μM 2-hydroxy TTBA, or 5 mM Li^+. Neuronal death was analyzed 24 hr later by counting viable neurons excluding trypan (mean±SEM, n=4). *, Significant difference from the relevant control (serum deprivation alone), p<0.05 using ANOVA and Student-Neuman-Keuls test. (C) Western blot analysis of FADD antibody following immunoprecipitation with Fas antibody in the same samples above.
# (§4) Additional experiments were performed to examine if targeting both neuronal cell necrosis and apoptosis would result in synergic neuroprotection in […] transgenic mice. […] Neuronal cell apoptosis was induced by serum deprivation in neuron-rich cortical cell cultures as reported, which was prevented by addition of 5 mM Li^+ as well as zVADfmk, a broad spectrum inhibitor of caspases (FIG. 5B). […] Additional experiments were performed to examine if Li^+ would prevent Fas signaling pathway. […] This implies that 2-Hydroxy-TTBA and Li^+ blocks oxidative neuronal cell necrosis and apoptosis, respectively.
# [7] = tested on: Fas-FADD interaction; experiment: Fas-FADD interaction in serum-deprived neuron-rich cultures (immunoprecipitation, Western blot); type: cell-based, mouse; settings: deprived of serum for 8 hr
# Protocol: as §3, §4
# [8] = tested on: G93A transgenic mice; type: in vivo, mouse
# Protocol: Animals were daily fed with 2-hydroxy TTBA (30 mg/kg/d), 0.2% lithium carbonate (200 mg/kg/d, Li), or a combination of both (2-hydroxy TTBA+Li) from 8 weeks of age in diet.
# Animals were daily fed with 2-hydroxy TTBA (30 mg/kg/d), 0.2% lithium carbonate (Li), or a combination of both (2-hydroxy TTBA+Li) from 8 weeks of age in diet.
# C & D: (C) Bright-field photomicrographs of cresyl violet-stained ventral horn sections from the wild type (a), or G93AA transgenic mice treated with vehicle (b), or with a combination of 2-hydroxy TTBA+Li (c) at 16 weeks of age.
# [9] = tested on: Fas, FADD, cleaved caspase-8 and caspase-3; experiment: Fas pathway in lumbar spinal cord of G93A transgenic mice (Western blot); settings: at 12 weeks of age; 2-hydroxy-TTBA 30 mg/kg/d, Li^+ 200 mg/kg/d in the diet
# Protocol: G93A transgenic mice received oral administration of 2-hydroxy-TTBA (30 mg/kg/d) in the diet from 8 weeks of age.
# [10] = 2-hydroxy TTBA 30 mg/kg/d, 0.2% lithium carbonate, or both, in diet from 8 weeks of age, n=13
molecule,measurement,setting,value
Vitamin E [reference compound],IC50,[1],22 µM
same,"Fe^2+-induced free radical neurotoxicity, effect in words",[1],prevented
same,"cyclosporine A-induced neuronal cell apoptosis, effect in words",[2],do not attenuate
same,"cyclosporine A-induced neuronal cell apoptosis, effect in words",[2]; listed as vitamin E,not attenuated
"O=C(O)c1cc(NCCCc2ccc(C(F)(F)F)cc2)ccc1O [chemical 42, 2-Hydroxy-5-[3-(4-trifluoromethyl-phenyl)-propylamino]-benzoic acid]",IC50,[3],68.3 µM
same,"single-dose toxicity, result in words",[4],high toxicity or dose-independent toxicity
"[Li+] [Li^+, lithium ion, reference compound]","Fe^2+-induced free radical neurotoxicity, effect in words",[1],did not attenuate; also recorded: does not attenuate
same,"Fe^2+-induced neuronal death (oxidative stress), effect in words","[1]; FIG. 5A: 30 μM Fe^2+, 24 h, 1 μM 2-hydroxy TTBA (submicromolar), 5 mM Li^+",not attenuated and not
same,"BSO-induced free radical neurotoxicity, effect in words","[5]; 10 mM BSO, 24 hr, 2-Hydroxy-TTBA or 2-Hydroxy-TPEA at doses as low as 0.3 μM, Li^+ 10 mM (legend 5 mM)",did not attenuate; also recorded: does not attenuate
same,"BSO-induced neuronal death (oxidative stress), effect in words","[5]; FIG. 5A: 10 mM BSO, 24 h, 1 μM 2-hydroxy TTBA (submicromolar), 5 mM Li^+",not attenuated and not
same,"neuronal cell apoptosis, effect in words","[2]; 20 μM cyclosporine A or 10 nM calyculin A, Li^+ at doses of 3-30 mM",dose-dependently attenuated
same,"serum deprivation-induced neuronal cell apoptosis, effect in words",[6],prevented; also recorded: prevents apoptosis
same,"Fas-FADD interaction, effect in words",[7],blocked
same,Mortality (survival),[8]; [10],137.2 days and 137.2^a ± 2.20 days
same,Onset from PaGE,[8]; [10],113.3 days and 113.3^a ± 2.28 days
same,Onset from Rotarod,[8]; [10],114.7 days and 114.7^a ± 2.23 days
same,"weight loss, % of the wild type","[8]; G93A mice at 18 weeks of age, oral administration in diet",53%
same,"extension reflex, motor strength, and coordination","[8]; G93A mice, drug in diet",improved
same,degeneration (loss) of ventral motor neurons in lumbar spinal cord,[8]; at 16 weeks of age,58%
same,motor performance versus vehicle-treated control,"[8]; from 11 weeks to 18 weeks, in the diet",better motor performance
same,"levels of Fas, FADD, cleaved caspase-8 and caspase-3 (Fas pathway) in lumbar spinal cord",[9],completely blocked
"O=C(O)c1cc(NCc2ccc([N+](=O)[O-])cc2)ccc1O [NBAS, 5-(4-nitrobenzyl)aminosalicylic acid]",IC50,"[1]; Mus musculus, Neuron",1.9 µM
"O=C(O)c1cc(NCCc2cccc(C(F)(F)F)c2)ccc1O [chemical 04, 2-Hydroxy-5-[2-(3-trifluoromethyl-phenyl)-ethylamino]-benzoic acid]","single-dose toxicity, result in words",[4],high toxicity or dose-independent toxicity
"O=C(O)c1cc(NCCc2cc(C(F)(F)F)cc(C(F)(F)F)c2)ccc1O [chemical 27, 5-[2-(3,5-Bis-trifluoromethyl-phenyl)-ethylamino]-2-hydroxy-benzoic acid]",IC50,[3],109 µM
same,"single-dose toxicity, result in words",[4],did not show dose-dependent result
O=C(O)c1cc(NCc2ccc(C(F)(F)F)cc2)ccc1O [TBAS],IC50,[1],0.31 µM
"O=C(O)c1cc(NCc2c(F)c(F)c(F)c(F)c2F)ccc1O [PBAS, 5-(pentafluoro-benzyl)aminosalicylic acid]",IC50,[1],0.1 µM
"O=C(O)c1cc(NCCc2ccc([N+](=O)[O-])cc2)ccc1O [NPAA, 5-[2-(4-nitrophenyl)-ethyl]aminosalicylic acid]",IC50,"[1]; Mus musculus, Neuron",0.27 µM
COC(=O)C[C@H](NC(=O)[C@H](C)NC(=O)[C@@H](NC(=O)OCc1ccccc1)C(C)C)C(=O)CF [zVADfmk] (Cbz-Val-Ala-Asp(OMe)-CH2F),"serum deprivation-induced neuronal cell apoptosis, effect in words",[6],prevented
